# Data from patent US7854753B2, “Photokinetic delivery of biologically active substances using pulsed incoherent light” (Photokinetix, Inc., priority 2002, dated 2010).
# Assay: Franz skin diffusion cell permeation (percutaneous absorption) under ambient, natural or pulsed incoherent LED light
# Settings: for Permeation Dark: ambient light absent; for Permeation Ctrl: ambient cool fluorescent light only, 260-750 nm, 120 cps; for Permeation Ctrl-TiO2: ambient fluorescent light, sample with 2% (w/w) rutile TiO2
# [1] = 350 + TiO2, 24 cps vs Dark-TiO2
# [2] = 350 + TiO2, 80 cps vs Dark-TiO2
# [3] = 390 + TiO2, 24 cps vs Dark-TiO2
# [4] = 390 + TiO2, 80 cps vs Dark-TiO2
# [5] = 405 + TiO2, 24 cps vs Dark-TiO2
# [6] = 405 + TiO2, 80 cps vs Dark-TiO2
# [7] = 450 + TiO2, 24 cps vs Dark-TiO2
# [8] = 450 + TiO2, 80 cps vs Dark-TiO2
# [9] = Dark-TiO2 control (2% TiO2), 24 cps series
# [10] = Dark-TiO2 control (2% TiO2), 80 cps series
# [11] = Day (natural daylight, not pulsed), control of the 24 cps series
# [12] = Day (natural daylight, not pulsed), control of the 80 cps series
# [13] = Day-TiO2 (natural daylight, 2% TiO2, not pulsed), control of the 24 cps series
# [14] = Day-TiO2 (natural daylight, 2% TiO2, not pulsed), control of the 80 cps series
# [15] = Day-TiO2 vs Dark-TiO2, 24 cps series
# [16] = Day-TiO2 vs Dark-TiO2, 80 cps series
smiles,measurement,setting,value
"C[C@@H]1[C@H](O)[C@@H](C)/C=C/C=C/C=C/C=C/C=C/C=C/C=C/[C@H](O[C@@H]2O[C@H](C)[C@@H](O)[C@H](N)[C@@H]2O)C[C@@H]2O[C@](O)(C[C@@H](O)C[C@@H](O)[C@H](O)CC[C@@H](O)C[C@@H](O)CC(=O)O[C@H]1C)C[C@H](O)[C@H]2C(=O)O [Compound 21, Amphotericin B]","% Permeation (percent increase or decrease vs dark baseline, equation 1)","350 + TiO2, 8 cps vs Dark-TiO2",49.51%
same,"% Permeation (percent increase or decrease vs dark baseline, equation 1)",[1],71.32%
same,"% Permeation (percent increase or decrease vs dark baseline, equation 1)",[2],18.24%
same,Permeation,"350 + TiO2, pulse rate 8 cps",1.54 μg/cm^2/24 hrs
same,Permeation,"350 + TiO2, pulse rate 24 cps",2.33 μg/cm^2/24 hrs
same,Permeation,"350 + TiO2, pulse rate 80 cps",2.01 μg/cm^2/24 hrs
same,Permeation,"350 nm LED, pulse rate 8 cps",1.19 μg/cm^2/24 hrs
same,Permeation,"350 nm LED, pulse rate 24 cps",3.35 μg/cm^2/24 hrs
same,Permeation,"350 nm LED, pulse rate 80 cps",2.81 μg/cm^2/24 hrs
same,"% Permeation (percent increase or decrease vs dark baseline, equation 1)","350 nm, 8 cps vs Dark",60.81%
same,"% Permeation (percent increase or decrease vs dark baseline, equation 1)","350 nm, 24 cps vs Dark",66.67%
same,"% Permeation (percent increase or decrease vs dark baseline, equation 1)","350 nm, 80 cps vs Dark",−11.36%
same,"% Permeation (percent increase or decrease vs dark baseline, equation 1)","390 + TiO2, 8 cps vs Dark-TiO2",91.26%
same,"% Permeation (percent increase or decrease vs dark baseline, equation 1)",[3],48.53%
same,"% Permeation (percent increase or decrease vs dark baseline, equation 1)",[4],241.18%
same,Permeation,"390 + TiO2, pulse rate 8 cps",1.97 μg/cm^2/24 hrs
same,Permeation,"390 + TiO2, pulse rate 24 cps",2.02 μg/cm^2/24 hrs
same,Permeation,"390 + TiO2, pulse rate 80 cps",5.80 μg/cm^2/24 hrs
same,Permeation,"390 nm LED, pulse rate 8 cps",1.11 μg/cm^2/24 hrs
same,Permeation,"390 nm LED, pulse rate 24 cps",1.88 μg/cm^2/24 hrs
same,Permeation,"390 nm LED, pulse rate 80 cps",3.94 μg/cm^2/24 hrs
same,"% Permeation (percent increase or decrease vs dark baseline, equation 1)","390 nm, 8 cps vs Dark",50.00%
same,"% Permeation (percent increase or decrease vs dark baseline, equation 1)","390 nm, 24 cps vs Dark",−6.47%
same,"% Permeation (percent increase or decrease vs dark baseline, equation 1)","390 nm, 80 cps vs Dark",24.29%
same,"% Permeation (percent increase or decrease vs dark baseline, equation 1)","405 + TiO2, 8 cps vs Dark-TiO2",33.01%
same,"% Permeation (percent increase or decrease vs dark baseline, equation 1)",[5],817.65%
same,"% Permeation (percent increase or decrease vs dark baseline, equation 1)",[6],180.59%
same,Permeation,"405 + TiO2, pulse rate 8 cps",1.37 μg/cm^2/24 hrs
same,Permeation,"405 + TiO2, pulse rate 24 cps",12.48 μg/cm^2/24 hrs
same,Permeation,"405 + TiO2, pulse rate 80 cps",4.77 μg/cm^2/24 hrs
same,Permeation,"405 nm LED, pulse rate 8 cps",1.26 μg/cm^2/24 hrs
same,Permeation,"405 nm LED, pulse rate 24 cps",1.83 μg/cm^2/24 hrs
same,Permeation,"405 nm LED, pulse rate 80 cps",7.23 μg/cm^2/24 hrs
same,"% Permeation (percent increase or decrease vs dark baseline, equation 1)","405 nm, 8 cps vs Dark",70.27%
same,"% Permeation (percent increase or decrease vs dark baseline, equation 1)","405 nm, 24 cps vs Dark",−8.96%
same,"% Permeation (percent increase or decrease vs dark baseline, equation 1)","405 nm, 80 cps vs Dark",129.65%
same,"% Permeation (percent increase or decrease vs dark baseline, equation 1)","450 + TiO2, 8 cps vs Dark-TiO2",110.68%
same,"% Permeation (percent increase or decrease vs dark baseline, equation 1)",[7],8.82%
same,"% Permeation (percent increase or decrease vs dark baseline, equation 1)",[8],198.82%
same,Permeation,"450 + TiO2, pulse rate 8 cps",2.17 μg/cm^2/24 hrs
same,Permeation,"450 + TiO2, pulse rate 24 cps",1.48 μg/cm^2/24 hrs
same,Permeation,"450 + TiO2, pulse rate 80 cps",5.08 μg/cm^2/24 hrs
same,Permeation,"450 nm LED, pulse rate 8 cps",0.80 μg/cm^2/24 hrs
same,Permeation,"450 nm LED, pulse rate 24 cps",1.19 μg/cm^2/24 hrs
same,Permeation,"450 nm LED, pulse rate 80 cps",9.26 μg/cm^2/24 hrs
same,"% Permeation (percent increase or decrease vs dark baseline, equation 1)","450 nm, 8 cps vs Dark",8.11%
same,"% Permeation (percent increase or decrease vs dark baseline, equation 1)","450 nm, 24 cps vs Dark",−40.80%
same,"% Permeation (percent increase or decrease vs dark baseline, equation 1)","450 nm, 80 cps vs Dark",192.11%
same,Permeation,"Dark control, 8 cps series",0.74 μg/cm^2/24 hrs
same,Permeation,"Dark control, 24 cps series",2.01 μg/cm^2/24 hrs
same,Permeation,"Dark control, 80 cps series",3.17 μg/cm^2/24 hrs
same,Permeation,"Dark-TiO2 control (2% TiO2), 8 cps series",1.03 μg/cm^2/24 hrs
same,Permeation,[9],1.36 μg/cm^2/24 hrs
same,Permeation,[10],1.70 μg/cm^2/24 hrs
same,Permeation,"Day (natural daylight, not pulsed), control of the 8 cps series",0.84 μg/cm^2/24 hrs
same,Permeation,[11],1.59 μg/cm^2/24 hrs
same,Permeation,[12],2.52 μg/cm^2/24 hrs
same,"% Permeation (percent increase or decrease vs dark baseline, equation 1)","Day vs Dark, 8 cps series",13.51%
same,"% Permeation (percent increase or decrease vs dark baseline, equation 1)","Day vs Dark, 24 cps series",−20.90%
same,"% Permeation (percent increase or decrease vs dark baseline, equation 1)","Day vs Dark, 80 cps series",−20.50%
same,Permeation,"Day-TiO2 (natural daylight, 2% TiO2, not pulsed), control of the 8 cps series",0.70 μg/cm^2/24 hrs
same,Permeation,[13],0.89 μg/cm^2/24 hrs
same,Permeation,[14],4.09 μg/cm^2/24 hrs
same,"% Permeation (percent increase or decrease vs dark baseline, equation 1)","Day-TiO2 vs Dark-TiO2, 8 cps series",−32.04%
same,"% Permeation (percent increase or decrease vs dark baseline, equation 1)",[15],−34.56%
same,"% Permeation (percent increase or decrease vs dark baseline, equation 1)",[16],140.59%
"Cn1c(=O)c2c(ncn2C)n(C)c1=O [Compound 9, Caffeine]",Permeation Dark,Dark control,269.40 μg/0.64 cm^2/25 hrs
same,Permeation Ctrl,,168.70 μg/0.64 cm^2/25 hrs
same,Permeation Ctrl-TiO2,,47.22 μg/0.64 cm^2/25 hrs
"CC(C)[C@H](N)C(=O)N[C@@H](Cc1ccc(O)cc1)C(=O)N[C@H](C(=O)O)C(C)C [Compound 12, Val-Tyr-Val]","% Permeation (percent increase or decrease vs dark baseline, equation 1)",[1],66.64%
same,"% Permeation (percent increase or decrease vs dark baseline, equation 1)",[2],65.49%
same,Permeation,"350 + TiO2, pulse rate 24 cps",18.98 μg/cm^2/24 hrs
same,Permeation,"350 + TiO2, pulse rate 80 cps",16.45 μg/cm^2/24 hrs
same,Permeation,"350 nm LED, pulse rate 24 cps",22.69 μg/cm^2/24 hrs
same,Permeation,"350 nm LED, pulse rate 80 cps",17.41 μg/cm^2/24 hrs
same,"% Permeation (percent increase or decrease vs dark baseline, equation 1)","350 nm, 24 cps vs Dark",50.96%
same,"% Permeation (percent increase or decrease vs dark baseline, equation 1)","350 nm, 80 cps vs Dark",94.09%
same,"% Permeation (percent increase or decrease vs dark baseline, equation 1)",[3],11.76%
same,"% Permeation (percent increase or decrease vs dark baseline, equation 1)",[4],95.88%
same,Permeation,"390 + TiO2, pulse rate 24 cps",12.73 μg/cm^2/24 hrs
same,Permeation,"390 + TiO2, pulse rate 80 cps",19.47 μg/cm^2/24 hrs
same,Permeation,"390 nm LED, pulse rate 24 cps",21.47 μg/cm^2/24 hrs
same,Permeation,"390 nm LED, pulse rate 80 cps",18.70 μg/cm^2/24 hrs
same,"% Permeation (percent increase or decrease vs dark baseline, equation 1)","390 nm, 24 cps vs Dark",42.85%
same,"% Permeation (percent increase or decrease vs dark baseline, equation 1)","390 nm, 80 cps vs Dark",108.47%
same,"% Permeation (percent increase or decrease vs dark baseline, equation 1)",[5],−44.16%
same,"% Permeation (percent increase or decrease vs dark baseline, equation 1)",[6],101.11%
same,Permeation,"405 + TiO2, pulse rate 24 cps",6.36 μg/cm^2/24 hrs
same,Permeation,"405 + TiO2, pulse rate 80 cps",19.99 μg/cm^2/24 hrs
same,Permeation,"405 nm LED, pulse rate 24 cps",12.32 μg/cm^2/24 hrs
same,Permeation,"405 nm LED, pulse rate 80 cps",19.89 μg/cm^2/24 hrs
same,"% Permeation (percent increase or decrease vs dark baseline, equation 1)","405 nm, 24 cps vs Dark",−18.03%
same,"% Permeation (percent increase or decrease vs dark baseline, equation 1)","405 nm, 80 cps vs Dark",121.74%
same,"% Permeation (percent increase or decrease vs dark baseline, equation 1)",[7],−33.98%
same,"% Permeation (percent increase or decrease vs dark baseline, equation 1)",[8],48.29%
same,Permeation,"450 + TiO2, pulse rate 24 cps",7.52 μg/cm^2/24 hrs
same,Permeation,"450 + TiO2, pulse rate 80 cps",14.74 μg/cm^2/24 hrs
same,Permeation,"450 nm LED, pulse rate 24 cps",9.51 μg/cm^2/24 hrs
same,Permeation,"450 nm LED, pulse rate 80 cps",17.39 μg/cm^2/24 hrs
same,"% Permeation (percent increase or decrease vs dark baseline, equation 1)","450 nm, 24 cps vs Dark",−36.73%
same,"% Permeation (percent increase or decrease vs dark baseline, equation 1)","450 nm, 80 cps vs Dark",93.87%
same,Permeation Dark,Dark control,37.24 μg/0.64 cm^2/25 hrs
same,Permeation,"Dark control, 24 cps series",15.03 μg/cm^2/24 hrs
same,Permeation,"Dark control, 80 cps series",8.97 μg/cm^2/24 hrs
same,Permeation,[9],11.39 μg/cm^2/24 hrs
same,Permeation,[10],9.94 μg/cm^2/24 hrs
same,Permeation,[11],8.27 μg/cm^2/24 hrs
same,Permeation,[12],11.32 μg/cm^2/24 hrs
same,"% Permeation (percent increase or decrease vs dark baseline, equation 1)","Day vs Dark, 24 cps series",−44.98%
same,"% Permeation (percent increase or decrease vs dark baseline, equation 1)","Day vs Dark, 80 cps series",26.20%
same,Permeation,[13],11.11 μg/cm^2/24 hrs
same,Permeation,[14],13.64 μg/cm^2/24 hrs
same,"% Permeation (percent increase or decrease vs dark baseline, equation 1)",[15],−2.55%
same,"% Permeation (percent increase or decrease vs dark baseline, equation 1)",[16],37.22%
same,405/1.7,"Table 10, 405 nm, 1.7 cps",23.21
same,405/9.7,"Table 10, 405 nm, 9.7 cps",91.68
same,405/24,"Table 10, 405 nm, 24 cps",48.83
same,Ctrl,"Table 10 peptides, ambient light only",35.26
same,Permeation Ctrl,,35.26 μg/0.64 cm^2/25 hrs
same,Permeation Ctrl-TiO2,,41.18 μg/0.64 cm^2/25 hrs
"Cn1c(=O)c2c(ncn2CC(=O)O)n(C)c1=O [Compound 1, Theophylline-7 acetic acid]",Permeation Dark,Dark control,0.00 μg/0.64 cm^2/25 hrs
same,Permeation Ctrl,,0.00 μg/0.64 cm^2/25 hrs
same,Permeation Ctrl-TiO2,,0.00 μg/0.64 cm^2/25 hrs
